Measurements taken from patent US10149839B2, “Chemical compounds” (AstraZeneca AB, priority 2016, dated 2018).
Converted amounts (≈) assume the structure as drawn.

Tests used:
[1] = Thermodynamic solubility (shake flask); format: physicochemical; details: aqueous phosphate buffer pH 7.4, 24 hours
[2] = Human plasma protein binding (equilibrium dialysis); format: in vitro ADME; details: dialysis 18 hours
[3] = Log D (shake flask, 1-octanol/aqueous buffer); details: pH 7.4, 1-octanol/aqueous buffer
[4] = target: T1, Estrogen Receptor (ERα) in MCF-7 cells (Homo sapiens (Human), UniProt P03372); test: MCF-7 ER down-regulation assay (immuno-fluorescence); format: cell-based; details: for IC50: 18-22 hours incubation; for % downregulation: shown in brackets where not >90%
[5] = Human hepatocyte assay (metabolic stability); format: in vitro ADME; details: cryopreserved pooled human hepatocytes (LiverPool 10 Donor), in vitro intrinsic clearance
[6] = physchem; details: 1-octanol/aqueous buffer, pH 7.4
[7] = target: estrogen receptor (ERα) in CAMA-1 cells (Homo sapiens (Human), UniProt P03372); test: Western blotting assay, CAMA-1 cells; format: cell-based; details: compound 100 nM, 48 h, normalised to 100 nM fulvestrant (100%)
[8] = target: T1, Estrogen Receptor (ERα) in MCF-7 cells; test: Western blotting assay, MCF-7 cells; format: cell-based; details: compound 100 nM, 48 h, normalised to 100 nM fulvestrant (100%)
[9] = Human Caco-2 bidirectional permeability A to B and B to A; format: in vitro ADME
[10] = Human Caco-2 passive permeability A to B Papp; format: in vitro ADME; details: apical pH 6.5, basolateral pH 7.4, with efflux transporter inhibitor cocktail
[11] = aqueous phosphate buffer, 25 °C, pH 7.4, aqueous buffer, thermodynamic from solid

T1 sequence (P03372 whole entry): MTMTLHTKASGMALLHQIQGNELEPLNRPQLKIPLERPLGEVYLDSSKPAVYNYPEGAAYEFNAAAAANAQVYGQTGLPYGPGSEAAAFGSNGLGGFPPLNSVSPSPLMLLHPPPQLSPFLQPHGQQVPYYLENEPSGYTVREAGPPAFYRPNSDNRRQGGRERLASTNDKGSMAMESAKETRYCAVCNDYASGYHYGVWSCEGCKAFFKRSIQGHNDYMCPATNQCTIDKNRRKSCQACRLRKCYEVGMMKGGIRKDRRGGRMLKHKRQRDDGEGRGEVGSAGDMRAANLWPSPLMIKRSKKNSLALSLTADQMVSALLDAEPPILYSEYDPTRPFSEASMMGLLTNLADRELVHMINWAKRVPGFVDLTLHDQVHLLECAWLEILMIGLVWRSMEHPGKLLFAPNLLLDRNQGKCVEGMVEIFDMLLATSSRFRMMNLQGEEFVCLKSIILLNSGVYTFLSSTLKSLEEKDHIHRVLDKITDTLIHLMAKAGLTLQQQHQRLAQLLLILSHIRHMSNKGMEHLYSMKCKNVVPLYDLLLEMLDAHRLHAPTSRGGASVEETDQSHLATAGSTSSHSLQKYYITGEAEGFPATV
estrogen receptor (ERα) in CAMA-1 cells, sequence (P03372 whole entry): as above

C[C@@H]1Cc2c([nH]c3ccccc23)[C@@H](c2c(F)cc(OCCNCCCF)cc2F)N1CC(F)CF (single isomer, unassigned) [Example 16]
solubility at 24 h ([1]; 25° C.): 149 µM (≈ 73.8 µg/mL) | Human plasma protein binding (% free) [2]: 1.8 % free | LogD pH 7.4 [3]: 3.1

C[C@@H]1Cc2c([nH]c3ccccc23)[C@@H](c2c(F)cc(OCCNCCCF)cc2F)N1CC(C)(F)CO (single isomer, unassigned) [Example 18]
IC50 [4]: 650 pM | % downregulation [4]: (85%) | solubility at 24 h ([1]; 25° C.): 639 µM (≈ 324 µg/mL) | Human plasma protein binding (% free) [2]: 2.4 % free | LogD pH 7.4 [3]: 2.7

C[C@@H]1Cc2c([nH]c3ccccc23)[C@@H](c2ccc(OCCNCCCF)cc2)N1C[C@H](F)CF (single isomer, unassigned) [Example 26]
IC50 [4]: 380 pM | solubility at 24 h ([1]; 25° C.): 65 µM (≈ 29.9 µg/mL) | Human plasma protein binding (% free) [2]: 2.7 % free | LogD pH 7.4 [3]: 3.2

COCC(C)(F)CN1[C@H](c2c(F)cc(OCCNCCCF)cc2F)c2[nH]c3ccccc3c2C[C@H]1C (single isomer, unassigned) [Example 51]
solubility at 24 h ([1]; 25° C.): 53 µM (≈ 27.6 µg/mL) | Human plasma protein binding (% free) [2]: 0.41 % free | LogD pH 7.4 [3]: 3.8

C[C@@H]1Cc2c([nH]c3ccccc23)[C@@H](c2c(F)cc(OCC(CO)NCCCF)cc2F)N1CC(C)(C)F (single isomer, unassigned) [Example 52]
IC50 [4]: 240 pM | % downregulation [4]: (79%) | solubility at 24 h ([1]; 25° C.): 14 µM (≈ 7.3 µg/mL) | Human plasma protein binding (% free) [2]: 0.47 % free | LogD pH 7.4 [3]: >4.1

C[C@@H]1Cc2c([nH]c3ccccc23)[C@@H](c2c(F)cc(OCC(CO)NCCCF)cc2F)N1CC(C)(C)F (single isomer, unassigned) [Example 53]
IC50 [4]: 140 pM | solubility at 24 h ([1]; 25° C.): 23 µM (≈ 12 µg/mL) | Human plasma protein binding (% free) [2]: 0.55 % free | LogD pH 7.4 [3]: >4.2

CC(C)CN1[C@H](c2ccc(OCCNCCC(F)F)cc2)c2[nH]c3ccccc3c2C[C@H]1C [Example 1, 3,3-difluoro-N-(2-(4-((1R,3R)-2-isobutyl-3-methyl-2,3,4,9-tetrahydro-1H-pyrido[3,4-b]indol-1-yl)phenoxy)ethyl)propan-1-amine]
IC50 [4]: 940 pM | hepatocyte CLint at 1 µM [5]: < 1 µL/min/1e6 cells | solubility at 24 h [1, 11]: 34 µM (≈ 15.5 µg/mL) | Human plasma protein binding (% free) [2]: 1.4 % free | logD [6]: 4.6

CC(C)CN1[C@H](c2ccc(OCCNCCCF)cc2)c2[nH]c3ccccc3c2C[C@H]1C [Example 2, 3-fluoro-N-(2-(4-((1R,3R)-2-isobutyl-3-methyl-2,3,4,9-tetrahydro-1H-pyrido[3,4-b]indol-1-yl)phenoxy)ethyl)propan-1-amine]
IC50 [4]: 430 pM | hepatocyte CLint at 1 µM [5]: < 1 µL/min/1e6 cells | solubility at 24 h [1, 11]: 301 µM (≈ 132 µg/mL) | Human plasma protein binding (% free) [2]: 1.5 % free | logD [6]: 3.6

C[C@@H]1Cc2c([nH]c3ccccc23)[C@@H](c2ccc(OCCNCCCF)cn2)N1CC(C)(C)F [Example 30, 3-fluoro-N-(2-((6-((1S,3R)-2-(2-fluoro-2-methylpropyl)-3-methyl-2,3,4,9-tetrahydro-1H-pyrido[3,4-b]indol-1-yl)pyridin-3-yl)oxy)ethyl)propan-1-amine]
IC50 [4]: 1200 pM | hepatocyte CLint at 1 µM [5]: 5 µL/min/1e6 cells | solubility at 24 h [1, 11]: 135 µM (≈ 61.6 µg/mL) | Human plasma protein binding (% free) [2]: 2.0 % free | logD [6]: 3.4

COc1cc(OCCNCCCF)ncc1[C@@H]1c2[nH]c3ccccc3c2C[C@@H](C)N1CC(F)F [Example 40, N-(2-((5-((1R,3R)-2-(2,2-difluoroethyl)-3-methyl-2,3,4,9-tetrahydro-1H-pyrido[3,4-b]indol-1-yl)-4-methoxypyridin-2-yl)oxy)ethyl)-3-fluoropropan-1-amine]
IC50 [4]: 170 pM | CAMA1 Western % ER deg vs Fv [7]: 85% | MCF7 Western % ER deg vs Fv [8]: 90% | hepatocyte CLint at 1 µM [5]: 5 µL/min/1e6 cells | solubility at 24 h [1, 11]: 854 µM (≈ 407 µg/mL) | Human plasma protein binding (% free) [2]: 5.8 % free | Papp at 2 h ([9]; Caco-2, 2 hours, pH 7.4): 3.2 ×10⁻⁶ cm/s | efflux ratio at 2 h ([9]; Papp(B-A)/Papp(A-B), Caco-2, pH 7.4): 1.8 | Papp at 2 h [10]: 14 ×10⁻⁶ cm/s | logD [6]: 2.7

COc1cc(OCCNCCCF)ncc1[C@@H]1c2[nH]c3ccccc3c2C[C@@H](C)N1CC(C)(F)F [Example 42, N-(2-((5-((1R,3R)-2-(2,2-Difluoropropyl)-3-methyl-2,3,4,9-tetrahydro-1H-pyrido[3,4-b]indol-1-yl)-4-methoxypyridin-2-yl)oxy)ethyl)-3-fluoropropan-1-amine]
IC50 [4]: 79 pM | CAMA1 Western % ER deg vs Fv [7]: 76% | MCF7 Western % ER deg vs Fv [8]: 90% | solubility at 24 h [1, 11]: 220 µM (≈ 108 µg/mL) | Human plasma protein binding (% free) [2]: 1.6 % free | logD [6]: 3.3

C[C@@H]1Cc2c([nH]c3ccccc23)[C@@H](c2c(F)cc(NCCNCCCF)cc2F)N1CC1(F)COC1 [Example 44, N1-(3,5-difluoro-4-((1R,3R)-2-((3-fluorooxetan-3-yl)methyl)-3-methyl-2,3,4,9-tetrahydro-1H-pyrido[3,4-b]indol-1-yl)phenyl)-N2-(3-fluoropropyl)ethane-1,2-diamine]
IC50 [4]: 170 pM | CAMA1 Western % ER deg vs Fv [7]: 90% | MCF7 Western % ER deg vs Fv [8]: 85% | solubility at 24 h [1, 11]: 577 µM (≈ 291 µg/mL) | Human plasma protein binding (% free) [2]: 2.3 % free | logD [6]: 3.1

C[C@@H]1Cc2c([nH]c3ccccc23)[C@@H](c2c(F)cc(N(C)CCNCCCF)cc2F)N1CC1(F)CC1 [Example 45, N1-(3,5-difluoro-4-((1R,3R)-2-((1-fluorocyclopropyl)methyl)-3-methyl-2,3,4,9-tetrahydro-1H-pyrido[3,4-b]indol-1-yl)phenyl)-N2-(3-fluoropropyl)-N1-methylethane-1,2-diamine]
IC50 [4]: 310 pM | CAMA1 Western % ER deg vs Fv [7]: 72% | MCF7 Western % ER deg vs Fv [8]: 97% | solubility at 24 h [1, 11]: 85 µM (≈ 42.7 µg/mL) | Human plasma protein binding (% free) [2]: 1.0 % free | logD [6]: 3.5

C[C@@H]1Cc2c([nH]c3ccccc23)[C@@H](c2c(F)cc(NCCNCCCF)cc2F)N1CC(F)(F)CO [Example 46, 3-((1R,3R)-1-(2,6-difluoro-4-((2-((3-fluoropropyl)amino)ethyl)amino)phenyl)-3-methyl-1,3,4,9-tetrahydro-2H-pyrido[3,4-b]indol-2-yl)-2,2-difluoropropan-1-ol]
IC50 [4]: 93 pM | CAMA1 Western % ER deg vs Fv [7]: 74% | MCF7 Western % ER deg vs Fv [8]: 88% | solubility at 24 h [1, 11]: 952 µM (≈ 486 µg/mL) | Human plasma protein binding (% free) [2]: 2.3 % free | logD [6]: 2.6

COc1cc(NCCNCCCF)ccc1[C@@H]1c2[nH]c3ccccc3c2C[C@@H](C)N1CC1(F)COC1 [Example 47, N1-(4-((1R,3R)-2-((3-fluorooxetan-3-yl)methyl)-3-methyl-2,3,4,9-tetrahydro-1H-pyrido[3,4-b]indol-1-yl)-3-methoxyphenyl)-N2-(3-fluoropropyl)ethane-1,2-diamine]
IC50 [4]: 240 pM | CAMA1 Western % ER deg vs Fv [7]: 81% | MCF7 Western % ER deg vs Fv [8]: 90% | solubility at 24 h [1, 11]: 840 µM (≈ 419 µg/mL) | Human plasma protein binding (% free) [2]: 5.0 % free | logD [6]: 2.5

COc1cc(OCCNCCCF)ncc1[C@@H]1c2[nH]c3ccccc3c2C[C@@H](C)N1CC(F)(F)CO [Example 64, 2,2-difluoro-3-((1R,3R)-1-(6-(2-((3-fluoropropyl)amino)ethoxy)-4-methoxypyridin-3-yl)-3-methyl-1,3,4,9-tetrahydro-2H-pyrido[3,4-b]indol-2-yl)propan-1-ol]
IC50 [4]: 210 pM | CAMA1 Western % ER deg vs Fv [7]: 87% | MCF7 Western % ER deg vs Fv [8]: 73% | solubility at 24 h [1, 11]: 849 µM (≈ 430 µg/mL) | Human plasma protein binding (% free) [2]: 12 % free | logD [6]: 2.2

COc1nc(OCCNCCCF)ccc1[C@@H]1c2[nH]c3ccccc3c2C[C@@H](C)N1CC(F)F [Example 75, N-(2-((5-((1R,3R)-2-(2,2-difluoroethyl)-3-methyl-2,3,4,9-tetrahydro-1H-pyrido[3,4-b]indol-1-yl)-6-methoxypyridin-2-yl)oxy)ethyl)-3-fluoropropan-1-amine]
IC50 [4]: 1200 pM | CAMA1 Western % ER deg vs Fv [7]: 60% | MCF7 Western % ER deg vs Fv [8]: 31% | solubility at 24 h [1, 11]: 411 µM (≈ 196 µg/mL) | Human plasma protein binding (% free) [2]: 1.0 % free | logD [6]: 3.4
